This assay has as its system CD2F1 mice, L1210 leukemia ip, survival T/C. In words: NCI In Vivo Anticancer Drug Screen. Data for tumor model L1210 Leukemia (intraperitoneal) in CD2F1 (CDF1) mice. Conditions: higher = longer survival. The gist of the method:
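Read-out first: treated-group measurement over vehicle-control measurement, expressed as a ratio. Animals bore a transplanted tumor line and were dosed with compound or vehicle.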

Where [1] appears, read: endpoint: mean survival time, dose: 25.0 mg/kg/injection, schedule: Q04DX003 (ip), vehicle: saline with Tween-80.
Setting [2] is: endpoint: mean survival time, dose: 50.0 mg/kg/injection, schedule: Q01DX009 (ip), vehicle: saline with Tween-80.
[3] abbreviates: endpoint: mean survival time, dose: 50.0 mg/kg/injection, schedule: Q04DX003 (ip), vehicle: saline with Tween-80.
[4] abbreviates: endpoint: mean survival time, dose: 100.0 mg/kg/injection, schedule: Q01DX001 (ip), vehicle: saline.
[5] abbreviates: endpoint: mean survival time, dose: 100.0 mg/kg/injection, schedule: Q04DX003 (ip), vehicle: saline with Tween-80.
The mark [6] stands for this setting: endpoint: mean survival time, dose: 25.0 mg/kg/injection, schedule: Q04DX003 (ip), vehicle: saline.
Where [7] appears, read: endpoint: mean survival time, dose: 100.0 mg/kg/injection, schedule: Q01DX009 (ip), vehicle: saline with Tween-80.
Where [8] appears, read: endpoint: mean survival time, dose: 200.0 mg/kg/injection, schedule: Q01DX009 (ip), vehicle: saline with Tween-80.
Setting [9] is: endpoint: mean survival time, dose: 200.0 mg/kg/injection, schedule: Q04DX003 (ip), vehicle: saline with Tween-80.
Where [10] appears, read: endpoint: mean survival time, dose: 400.0 mg/kg/injection, schedule: Q01DX009 (ip), vehicle: saline with Tween-80.
Setting [11] is: endpoint: mean survival time, dose: 400.0 mg/kg/injection, schedule: Q04DX003 (ip), vehicle: saline with Tween-80.
Where [12] appears, read: endpoint: mean survival time, dose: 100.0 mg/kg/injection, schedule: Q04DX003 (ip), vehicle: saline.
[13] abbreviates: endpoint: mean survival time, dose: 50.0 mg/kg/injection, schedule: Q01DX009 (ip), vehicle: Klucel (hydroxypropylcellulose) (HPC).
The mark [14] stands for this setting: endpoint: mean survival time, dose: 100.0 mg/kg/injection, schedule: Q01DX009 (ip), vehicle: Klucel (hydroxypropylcellulose) (HPC).
Setting [15] is: endpoint: mean survival time, dose: 200.0 mg/kg/injection, schedule: Q01DX009 (ip), vehicle: Klucel (hydroxypropylcellulose) (HPC).
Where [16] appears, read: endpoint: mean survival time, dose: 100.0 mg/kg/injection, schedule: Q04DX002 (ip), vehicle: saline with Tween-80.
The mark [17] stands for this setting: endpoint: mean survival time, dose: 200.0 mg/kg/injection, schedule: Q04DX002 (ip), vehicle: saline with Tween-80.

SMILES strings stand for the structures. “And” between values parts separate entries of the source, which are not always exact repeats. Equal values may be shown once. Inconclusive results and toxic doses are left out.

Consider `CCCCCCCCCCCCN(C)C`, for which the T/C runs as follows: (endpoint: mean survival time, dose: 25.0 mg/kg/injection, schedule: Q01DX009 (ip), vehicle: saline with Tween-80) 92 % of control; under setting [1], 97 % of control; (endpoint: mean survival time, dose: 50.0 mg/kg/injection, schedule: Q01DX001 (ip), vehicle: saline) 96 % of control; under setting [2], 92 % of control; under setting [3], 100 % of control; under setting [4], 100 % of control. For the same compound, the T/C under setting [5] is 102 % of control.
Regarding `O=CN(O)CC(=O)O.[Ni]`, the T/C was 102 % of control (endpoint: mean survival time, dose: 12.5 mg/kg/injection, schedule: Q04DX003 (ip), vehicle: saline) and 102 % of control under setting [6].
With `CCOC(=O)C1C(=O)NCC1c1ccccc1` (stereo unspecified), the T/C was 106 % of control under setting [2], 101 % of control under setting [7] and 101 % of control under setting [8].
Turning to `Nc1ncnc2c1c(C(=O)NO)cn2C1OC(CO)C(O)C1O` (stereo unspecified), where the note is “endpoint: mean survival time, dose: 50.0 mg/kg/injection, schedule: Q01DX001 (ip), vehicle: water”, the T/C is 170 % of control.
Turning to `COC(=O)Nc1ccc(C)cc1[N+](=O)[O-]`, the T/C (endpoint: mean survival time, dose: 100.0 mg/kg/injection, schedule: Q04DX003 (ip), vehicle: other) is 106 % of control; the T/C (endpoint: mean survival time, dose: 200.0 mg/kg/injection, schedule: Q04DX003 (ip), vehicle: other) is 106 % of control; the T/C (endpoint: mean survival time, dose: 400.0 mg/kg/injection, schedule: Q04DX003 (ip), vehicle: other) is 109 % of control.
Take `COC(=O)CC(=O)c1ccc(OC(C)C)cc1`: the T/C by setting is: under setting [7], 100 % of control; under setting [5], 87 % of control; under setting [8], 107 % of control; under setting [9], 90 % of control; under setting [10], 104 % of control; under setting [11], 87 % of control.
Take `O=C(N/N=C/c1ccccc1O)c1ccccc1O`: the T/C reads like this: under setting [7], 93 % of control; under setting [8], 95 % of control; under setting [10], 93 % of control.
`CC(=O)Oc1ccc(N2C(=O)C=CC2=O)cc1`: the T/C (endpoint: mean survival time, dose: 12.5 mg/kg/injection, schedule: Q04DX003 (ip), vehicle: Klucel (hydroxypropylcellulose) (HPC)) was 96 % of control.
Regarding `Nc1nc(C=O)nc2c1ncn2C1OC(CO)C(O)C1O` (stereo unspecified), the T/C is, setting by setting: (endpoint: median survival time, dose: 25.0 mg/kg/injection, schedule: Q01DX005 (ip), vehicle: water) 101 % of control; (endpoint: median survival time, dose: 50.0 mg/kg/injection, schedule: Q01DX005 (ip), vehicle: water) 117 % of control; (endpoint: median survival time, dose: 100.0 mg/kg/injection, schedule: Q01DX005 (ip), vehicle: water) 117 % of control.
For `O=[N+]([O-])c1ccc(OCc2ccccc2)nc1`, the T/C (endpoint: mean survival time, dose: 100.0 mg/kg/injection, schedule: Q01DX001 (ip), vehicle: saline with Tween-80) is 86 % of control; the T/C (endpoint: mean survival time, dose: 200.0 mg/kg/injection, schedule: Q01DX001 (ip), vehicle: saline with Tween-80) was 100 % of control; the T/C (endpoint: mean survival time, dose: 400.0 mg/kg/injection, schedule: Q01DX001 (ip), vehicle: saline with Tween-80) is 93 % of control.
Regarding `CCCCCCCCCCP(=O)(OCCCC)OCCCC`, the T/C runs as follows: under setting [6], 102 % of control; (endpoint: mean survival time, dose: 50.0 mg/kg/injection, schedule: Q04DX003 (ip), vehicle: saline) 102 % of control; under setting [12], 100 % of control.
Consider `O=[As](O)(c1ccccc1)C1CCCCC1O` (stereo unspecified), for which, where the note is “endpoint: mean survival time, dose: 25.0 mg/kg/injection, schedule: Q01DX001 (ip), vehicle: saline with Tween-80”, the T/C was 98 % of control.
As for `CN(C)N=Nc1ccc(Cl)cc1`, the T/C is 111 % of control (endpoint: mean survival time, dose: 79.0 mg/kg/injection, schedule: Q01DX009 (ip), vehicle: Klucel (hydroxypropylcellulose) (HPC)) and 119 % of control (endpoint: mean survival time, dose: 118.0 mg/kg/injection, schedule: Q01DX009 (ip), vehicle: Klucel (hydroxypropylcellulose) (HPC)).
For `NC(=S)N/N=C/c1cccc(CC(O)(C(F)(F)F)C(F)(F)F)n1`, the T/C (endpoint: mean survival time, dose: 12.5 mg/kg/injection, schedule: Q04DX003 (ip), vehicle: saline with Tween-80) is 97 % of control; the T/C under setting [1] was 94 % of control; the T/C under setting [3] was 96 % of control.
Take `CCOC(=O)c1c(C)nc(C)c(C(=O)OCC)c1-c1cccc([N+](=O)[O-])c1`: the T/C runs as follows: under setting [3], 97 % of control; under setting [5], 105 % of control; under setting [9], 103 % of control.
For the compound `COc1ccc(NC(=O)Nc2nccs2)c(Cl)c1`, the T/C was 98 % of control under setting [13]; 98 % of control under setting [14]; 106 % of control (endpoint: mean survival time, dose: 100.0 mg/kg/injection, schedule: Q04DX003 (ip), vehicle: Klucel (hydroxypropylcellulose) (HPC)); 87 % of control under setting [15]; 102 % of control (endpoint: mean survival time, dose: 200.0 mg/kg/injection, schedule: Q04DX003 (ip), vehicle: Klucel (hydroxypropylcellulose) (HPC)); 98 % of control (endpoint: mean survival time, dose: 400.0 mg/kg/injection, schedule: Q04DX003 (ip), vehicle: Klucel (hydroxypropylcellulose) (HPC)).
On to `CCCCC(CSC#N)SC#N` (stereo unspecified), for which the T/C by setting is: (endpoint: mean survival time, dose: 6.25 mg/kg/injection, schedule: Q04DX002 (ip), vehicle: saline with Tween-80) 92 % of control; (endpoint: mean survival time, dose: 12.5 mg/kg/injection, schedule: Q04DX002 (ip), vehicle: saline with Tween-80) 88 % of control.
In the case of `O=C(O)/C=C/C(=O)Nc1ccc(Cl)c(Cl)c1`, the T/C is, setting by setting: (endpoint: mean survival time, dose: 6.25 mg/kg/injection, schedule: Q01DX009 (ip), vehicle: Klucel (hydroxypropylcellulose) (HPC)) 93 % of control; (endpoint: mean survival time, dose: 12.5 mg/kg/injection, schedule: Q01DX009 (ip), vehicle: Klucel (hydroxypropylcellulose) (HPC)) 96 % of control and 98 % of control; (endpoint: mean survival time, dose: 25.0 mg/kg/injection, schedule: Q01DX009 (ip), vehicle: Klucel (hydroxypropylcellulose) (HPC)) 113 % of control and 104 % of control; under setting [13], 114 % of control and 104 % of control and 110 % of control; under setting [14], 104 % of control and 107 % of control and 109 % of control; under setting [15], 98 % of control.
Turning to `Nc1ccc(N=Nc2ccc3nccc(N)c3c2)c(N)n1`, the T/C is, setting by setting: under setting [16], 119 % of control; under setting [17], 119 % of control; (endpoint: mean survival time, dose: 400.0 mg/kg/injection, schedule: Q04DX002 (ip), vehicle: saline with Tween-80) 119 % of control.
Turning to `O=[N+]([O-])c1c(Cl)c(Cl)cc(Cl)c1Cl`, the T/C runs as follows: under setting [7], 94 % of control; under setting [5], 93 % of control; under setting [8], 96 % of control; under setting [9], 97 % of control; under setting [10], 98 % of control; under setting [11], 98 % of control.
For the compound `C[N+](C)(C)C(Cc1c[nH]c2ccccc12)C(=O)O` (stereo unspecified), the T/C is 91 % of control under setting [4]; 96 % of control and 100 % of control under setting [12]; 101 % of control (endpoint: mean survival time, dose: 200.0 mg/kg/injection, schedule: Q01DX001 (ip), vehicle: saline); 105 % of control and 97 % of control (endpoint: mean survival time, dose: 200.0 mg/kg/injection, schedule: Q04DX003 (ip), vehicle: saline); 95 % of control (endpoint: mean survival time, dose: 400.0 mg/kg/injection, schedule: Q01DX001 (ip), vehicle: saline); 94 % of control and 95 % of control (endpoint: mean survival time, dose: 400.0 mg/kg/injection, schedule: Q04DX003 (ip), vehicle: saline).
Take `O=c1c2cccc3cccc(c4n1NC=c1ccccc1=4)c32`: the T/C was 100 % of control (endpoint: mean survival time, dose: 25.0 mg/kg/injection, schedule: Q04DX002 (ip), vehicle: saline with Tween-80); 92 % of control (endpoint: mean survival time, dose: 50.0 mg/kg/injection, schedule: Q04DX002 (ip), vehicle: saline with Tween-80); 96 % of control under setting [16]; 96 % of control under setting [17].
Regarding `CCOC(N)=O`, the T/C is, setting by setting: (endpoint: mean survival time, dose: 125.0 mg/kg/injection, schedule: Q01DX009 (ip), vehicle: saline) 98 % of control and 101 % of control; (endpoint: mean survival time, dose: 250.0 mg/kg/injection, schedule: Q01DX009 (ip), vehicle: saline) 104 % of control and 109 % of control; (endpoint: mean survival time, dose: 500.0 mg/kg/injection, schedule: Q01DX009 (ip), vehicle: saline) 116 % of control and 101 % of control; (endpoint: mean survival time, dose: 1000.0 mg/kg/injection, schedule: Q01DX009 (ip), vehicle: saline) 89 % of control and 105 % of control.
